In PubChem BioAssay AID1963835 (Molecular Pharmacology Branch, DTP, NCI, 2024):

Test system: 699152-130-R-J1-PDC complex spheroid viability
Assay: Anticancer human tumor 699152-130-R-J1-PDC patient-derived pancreatic carcinoma cell line growth inhibition [POLQ]
Details: for IC50: curve of first compound; for viability, T/C: stronger effect = lower value
Outline: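 PDC + HUVEC + MSC complex spheroids; POLQ inhibitors ± partner drugs; top conc. at/near clinical Cmax, else 10 microM (SN-38 1 microM), half-log dilutions; 37 degrees C, 5% CO2.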

[1] = second compound 0.0316 µM, first compound 0.0316 µM
[2] = second compound 0.0316 µM, first compound 0.1 µM
[3] = second compound 0.1 µM, first compound 0.0316 µM
[4] = second compound 0.1 µM, first compound 0.1 µM
[5] = second compound 0.316 µM, first compound 0.0316 µM
[6] = second compound 0.316 µM, first compound 0.1 µM
[7] = second compound 1 µM, first compound 0.0316 µM
[8] = second compound 1 µM, first compound 0.1 µM
[9] = second compound 3.16 µM, first compound 0.0316 µM
[10] = second compound 3.16 µM, first compound 0.1 µM
[11] = second compound 10 µM, first compound 0.0316 µM
[12] = second compound 10 µM, first compound 0.1 µM
[13] = second compound 0.0316 µM, first compound 0.316 µM
[14] = second compound 0.0316 µM, first compound 1 µM
[15] = second compound 0.0316 µM, first compound 3.16 µM
[16] = second compound 0.0316 µM, first compound 10 µM
[17] = second compound 0.1 µM, first compound 0.316 µM
[18] = second compound 0.1 µM, first compound 1 µM
[19] = second compound 0.1 µM, first compound 3.16 µM
[20] = second compound 0.1 µM, first compound 10 µM
[21] = second compound 0.316 µM, first compound 0.316 µM
[22] = second compound 0.316 µM, first compound 1 µM
[23] = second compound 0.316 µM, first compound 3.16 µM
[24] = second compound 0.316 µM, first compound 10 µM
[25] = second compound 1 µM, first compound 0.316 µM
[26] = second compound 1 µM, first compound 1 µM
[27] = second compound 1 µM, first compound 3.16 µM
[28] = second compound 1 µM, first compound 10 µM
[29] = second compound 3.16 µM, first compound 0.316 µM
[30] = second compound 3.16 µM, first compound 1 µM
[31] = second compound 3.16 µM, first compound 3.16 µM
[32] = second compound 3.16 µM, first compound 10 µM
[33] = second compound 10 µM, first compound 0.316 µM
[34] = second compound 10 µM, first compound 1 µM
[35] = second compound 10 µM, first compound 3.16 µM
[36] = second compound 10 µM, first compound 10 µM
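Further: spheroids exposed to agents for 7 days before viability reading.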
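Wherever viability, T/C is given: percent of DMSO vehicle control viability so 100% = vehicle and 0% = no viable signal.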

## CC[C@@]1(O)C(=O)OCc2c1cc1n(c2=O)Cc2cc3c(CN(C)C)c(O)ccc3nc2-1 + COC1C(OC(N)=O)C(O)C(Oc2ccc3c(O)c(NC(=O)c4ccc(O)c(CC=C(C)C)c4)c(=O)oc3c2C)OC1(C)C
Second compound 0.0316 µM
  IC50: > 100 nM
Second compound 0.1 µM
  IC50: > 100 nM
Second compound 0.316 µM
  IC50: > 100 nM
Second compound 1 µM
  IC50: 95 nM
Second compound 3.16 µM
  IC50: > 100 nM
Second compound 10 µM
  IC50: > 100 nM
Second compound 0.0316 µM, first compound 0.000316 µM
  viability, T/C: 116%
Second compound 0.0316 µM, first compound 0.001 µM
  viability, T/C: 101%
Second compound 0.0316 µM, first compound 0.00316 µM
  viability, T/C: 99.3%
Second compound 0.0316 µM, first compound 0.01 µM
  viability, T/C: 93.1%
[1]
  viability, T/C: 79.6%
[2]
  viability, T/C: 48.4%
Second compound 0.1 µM, first compound 0.000316 µM
  viability, T/C: 111%
Second compound 0.1 µM, first compound 0.001 µM
  viability, T/C: 99.6%
Second compound 0.1 µM, first compound 0.00316 µM
  viability, T/C: 90.4%
Second compound 0.1 µM, first compound 0.01 µM
  viability, T/C: 93.2%
[3]
  viability, T/C: 69%
[4]
  viability, T/C: 60.2%
Second compound 0.316 µM, first compound 0.000316 µM
  viability, T/C: 112%
Second compound 0.316 µM, first compound 0.001 µM
  viability, T/C: 94.3%
Second compound 0.316 µM, first compound 0.00316 µM
  viability, T/C: 84.9%
Second compound 0.316 µM, first compound 0.01 µM
  viability, T/C: 94%
[5]
  viability, T/C: 77.9%
[6]
  viability, T/C: 61.6%
Second compound 1 µM, first compound 0.000316 µM
  viability, T/C: 97.5%
Second compound 1 µM, first compound 0.001 µM
  viability, T/C: 92.8%
Second compound 1 µM, first compound 0.00316 µM
  viability, T/C: 99%
Second compound 1 µM, first compound 0.01 µM
  viability, T/C: 92.2%
[7]
  viability, T/C: 83.2%
[8]
  viability, T/C: 48.3%
Second compound 3.16 µM, first compound 0.000316 µM
  viability, T/C: 92.5%
Second compound 3.16 µM, first compound 0.001 µM
  viability, T/C: 106%
Second compound 3.16 µM, first compound 0.00316 µM
  viability, T/C: 83%
Second compound 3.16 µM, first compound 0.01 µM
  viability, T/C: 96.4%
[9]
  viability, T/C: 80%
[10]
  viability, T/C: 58%
Second compound 10 µM, first compound 0.000316 µM
  viability, T/C: 103%
Second compound 10 µM, first compound 0.001 µM
  viability, T/C: 89.4%
Second compound 10 µM, first compound 0.00316 µM
  viability, T/C: 98.8%
Second compound 10 µM, first compound 0.01 µM
  viability, T/C: 95.4%
[11]
  viability, T/C: 69.7%
[12]
  viability, T/C: 60.9%

## CC1COCCN1c1cc(C2(O)CC3CCC(C2)O3)c2cnn(-c3ccn[nH]3)c2n1 (stereo not drawn) + Cc1cccc(N(C)C(=O)C2C(O)CCN2c2nc(C)cc(C(F)(F)F)c2C#N)c1
Second compound 0.0316 µM
  IC50: 1990 nM
Second compound 0.1 µM
  IC50: 1200 nM
Second compound 0.316 µM
  IC50: 1050 nM
Second compound 1 µM
  IC50: 1690 nM
Second compound 3.16 µM
  IC50: 1740 nM
Second compound 10 µM
  IC50: 1940 nM
[1]
  viability, T/C: 92.1%
[2]
  viability, T/C: 83.9%
[13]
  viability, T/C: 64.9%
[14]
  viability, T/C: 60.6%
[15]
  viability, T/C: 44.5%
[16]
  viability, T/C: 33.1%
[3]
  viability, T/C: 94.6%
[4]
  viability, T/C: 78.7%
[17]
  viability, T/C: 60.9%
[18]
  viability, T/C: 52.2%
[19]
  viability, T/C: 44%
[20]
  viability, T/C: 38.6%
[5]
  viability, T/C: 93%
[6]
  viability, T/C: 94%
[21]
  viability, T/C: 64.6%
[22]
  viability, T/C: 54.3%
[23]
  viability, T/C: 47.4%
[24]
  viability, T/C: 39.7%
[7]
  viability, T/C: 96.3%
[8]
  viability, T/C: 83.1%
[25]
  viability, T/C: 66.4%
[26]
  viability, T/C: 52.8%
[27]
  viability, T/C: 47.5%
[28]
  viability, T/C: 37.8%
[9]
  viability, T/C: 98.2%
[10]
  viability, T/C: 87.2%
[29]
  viability, T/C: 62.3%
[30]
  viability, T/C: 58.8%
[31]
  viability, T/C: 45%
[32]
  viability, T/C: 33.6%
[11]
  viability, T/C: 84.6%
[12]
  viability, T/C: 81.8%
[33]
  viability, T/C: 69.7%
[34]
  viability, T/C: 57.3%
[35]
  viability, T/C: 44.9%
[36]
  viability, T/C: 39.1%

## O=c1[nH]cc(F)c(=O)[nH]1 + Cc1cccc(N(C)C(=O)C2C(O)CCN2c2nc(C)cc(C(F)(F)F)c2C#N)c1
Second compound 0.0316 µM
  IC50: > 10000 nM
Second compound 0.1 µM
  IC50: > 10000 nM
Second compound 0.316 µM
  IC50: > 10000 nM
Second compound 1 µM
  IC50: > 10000 nM
Second compound 3.16 µM
  IC50: > 10000 nM
Second compound 10 µM
  IC50: > 10000 nM
[1]
  viability, T/C: 105%
[2]
  viability, T/C: 109%
[13]
  viability, T/C: 107%
[14]
  viability, T/C: 113%
[15]
  viability, T/C: 102%
[16]
  viability, T/C: 74.1%
[3]
  viability, T/C: 110%
[4]
  viability, T/C: 113%
[17]
  viability, T/C: 99.2%
[18]
  viability, T/C: 107%
[19]
  viability, T/C: 100%
[20]
  viability, T/C: 82.6%
[5]
  viability, T/C: 120%
[6]
  viability, T/C: 122%
[21]
  viability, T/C: 106%
[22]
  viability, T/C: 107%
[23]
  viability, T/C: 120%
[24]
  viability, T/C: 79.9%
[7]
  viability, T/C: 108%
[8]
  viability, T/C: 104%
[25]
  viability, T/C: 104%
[26]
  viability, T/C: 111%
[27]
  viability, T/C: 92.1%
[28]
  viability, T/C: 74.7%
[9]
  viability, T/C: 113%
[10]
  viability, T/C: 116%
[29]
  viability, T/C: 108%
[30]
  viability, T/C: 104%
[31]
  viability, T/C: 117%
[32]
  viability, T/C: 87.3%
[11]
  viability, T/C: 103%
[12]
  viability, T/C: 102%
[33]
  viability, T/C: 104%
[34]
  viability, T/C: 92.8%
[35]
  viability, T/C: 91.3%
[36]
  viability, T/C: 84.6%

## CNCc1ccc(-c2[nH]c3cc(F)cc4c3c2CCNC4=O)cc1 + Nc1ccc(C#CCN(C(=O)Cc2ncc(C(F)(F)F)cc2C(F)(F)F)c2ccc(F)cc2)nn1
Second compound 0.0316 µM
  IC50: > 10000 nM
Second compound 0.1 µM
  IC50: > 10000 nM
Second compound 0.316 µM
  IC50: > 10000 nM
Second compound 1 µM
  IC50: > 10000 nM
Second compound 3.16 µM
  IC50: > 10000 nM
Second compound 10 µM
  IC50: > 10000 nM
[1]
  viability, T/C: 103%
[2]
  viability, T/C: 98.8%
[13]
  viability, T/C: 95.9%
[14]
  viability, T/C: 115%
[15]
  viability, T/C: 115%
[16]
  viability, T/C: 123%
[3]
  viability, T/C: 95.8%
[4]
  viability, T/C: 104%
[17]
  viability, T/C: 100%
[18]
  viability, T/C: 105%
[19]
  viability, T/C: 113%
[20]
  viability, T/C: 118%
[5]
  viability, T/C: 85.2%
[6]
  viability, T/C: 109%
[21]
  viability, T/C: 105%
[22]
  viability, T/C: 102%
[23]
  viability, T/C: 127%
[24]
  viability, T/C: 132%
[7]
  viability, T/C: 94.9%
[8]
  viability, T/C: 90%
[25]
  viability, T/C: 100%
[26]
  viability, T/C: 94.6%
[27]
  viability, T/C: 112%
[28]
  viability, T/C: 132%
[9]
  viability, T/C: 105%
[10]
  viability, T/C: 93.6%
[29]
  viability, T/C: 109%
[30]
  viability, T/C: 104%
[31]
  viability, T/C: 105%
[32]
  viability, T/C: 122%
[11]
  viability, T/C: 99.7%
[12]
  viability, T/C: 104%
[33]
  viability, T/C: 107%
[34]
  viability, T/C: 107%
[35]
  viability, T/C: 130%
[36]
  viability, T/C: 120%
